Converted amounts (≈) assume the structure as drawn.

In the experiment the test system is Mycobacterium tuberculosis. The experiment can be described thus: Antitubercular activity against Mycobacterium tuberculosis H37Rv. The class given is functional.
On to `CCCCCCCCCCCCCCNCCNc1c(F)cc2c(=O)c(C(=O)O)cn(C3CC3)c2c1OC`, for which the MIC – broadly, the least concentration at which growth counts as inhibited – worked out at 6.25 µg/mL (≈ 11.8 µM).
In the case of `CCCCCCCCNCCCNc1c(F)cc2c(=O)c(C(=O)O)cn(C3CC3)c2c1OC` it was 1.25 µg/mL (≈ 2.71 µM); in that of `CCCCCCCCCCNCCNc1c(F)cc2c(=O)c(C(=O)O)cn(C3CC3)c2c1OC`, 0.62 µg/mL (≈ 1.3 µM).
The same measure for `CO[C@H]1/C=C/O[C@@]2(C)Oc3c(C)c(O)c4c(O)c(c(/C=N/N5CCN(C)CC5)c(O)c4c3C2=O)NC(=O)/C(C)=C\C=C\[C@H](C)[C@H](O)[C@@H](C)[C@@H](O)[C@@H](C)[C@H](OC(C)=O)[C@@H]1C` [RIFAMPIN]: 1 µg/mL (≈ 1.22 µM).
Turning to `CCCCC(CC)CNCCNc1c(F)cc2c(=O)c(C(=O)O)cn(C3CC3)c2c1OC` (centres undefined), the minimum inhibitory concentration (MIC) amounted to 0.62 µg/mL (≈ 1.39 µM).
`CCCCCCCCCCCCNCCCNc1c(F)cc2c(=O)c(C(=O)O)cn(C3CC3)c2c1OC` came in with an MIC of 0.62 µg/mL (≈ 1.2 µM).
The same measure for `CCCCCCCCCCCCNCCNc1c(F)cc2c(=O)c(C(=O)O)cn(C3CC3)c2c1OC`: 1.25 µg/mL (≈ 2.48 µM).
The same measure for `COc1c(N2CCNC(C)C2)c(F)cc2c(=O)c(C(=O)O)cn(C3CC3)c12` (centres undefined) [GATIFLOXACIN]: 0.1 µg/mL (≈ 0.266 µM); for `CCCCCCCCNCCNc1c(F)cc2c(=O)c(C(=O)O)cn(C3CC3)c2c1OC`: 12.5 µg/mL (≈ 27.9 µM); for `CCCCCCNCCNc1c(F)cc2c(=O)c(C(=O)O)cn(C3CC3)c2c1OC`: 5 µg/mL (≈ 11.9 µM).
In the case of `CCCCCCNCCCNc1c(F)cc2c(=O)c(C(=O)O)cn(C3CC3)c2c1OC` it was 50 µg/mL (≈ 115 µM).
For the compound `CCCCC(CC)CNCCCNc1c(F)cc2c(=O)c(C(=O)O)cn(C3CC3)c2c1OC` (centres undefined), inhibition of growth (MIC) required 2.5 µg/mL (≈ 5.42 µM).
In the case of `CCCCCCCCCCCCCCNCCCNc1c(F)cc2c(=O)c(C(=O)O)cn(C3CC3)c2c1OC`, 0.62 µg/mL (≈ 1.14 µM) was the least that counted as inhibitory (MIC).
The same measure for `CCCCCCCCCCNCCCNc1c(F)cc2c(=O)c(C(=O)O)cn(C3CC3)c2c1OC`: 0.31 µg/mL (≈ 0.633 µM).
